Here are results for eight compounds from patent US20250255889A1, “METHODS FOR TREATMENT SELECTION FOR CHRONIC LYMPHOCYTIC LEUKEMIA (CLL)” (The Broad Institute, Inc., priority 2022, published 2025).

For the experiment, the system named is primary CLL samples (CD19+ and CD5+ cells). The experiment in a line: High-throughput dynamic BH3 profiling (HT-DBP): drug-induced apoptotic priming (delta priming), cytochrome c release after BH3 peptide. In kind it is cell-based, human. The method, boiled down: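 Primary CLL cells (CD19+/CD5+) are treated with the agent or DMSO carrier, then briefly exposed to a fixed concentration of a promiscuous BH3 peptide such as BIM. Mitochondrial cytochrome c release serves as the priming surrogate. Delta priming is drug-treated priming minus DMSO-treated priming, run in high-throughput format.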

The mark [1] stands for this setting: peptide BAD 0.3 uM, feature IGLV321_R110.
The mark [2] stands for this setting: peptide BAD 0.3 uM, feature RPS15.
[3] abbreviates: peptide BAD 0.3 uM, feature loss_6q.
Where [4] appears, read: peptide BAD 0.3 uM, feature priortrt_Post.
Where [5] appears, read: peptide BIM 0.01 uM, feature BIRC3.
Setting [6] is: peptide BIM 0.01 uM, feature loss_9p21.3.
The mark [7] stands for this setting: peptide BIM 0.01 uM, feature loss_17q11.2.
Setting [8] is: peptide MS1 2.5 uM, feature EC-i.
The mark [9] stands for this setting: peptide MS1 2.5 uM, feature IGLV321_R110.
The mark [10] stands for this setting: peptide MS1 2.5 uM, feature RPS15.
The mark [11] stands for this setting: peptide MS1 2.5 uM, feature loss_6q.
[12] abbreviates: peptide PUMA 1 uM, feature priortrt_Post.
Setting [13] is: peptide PUMA 1 uM, feature BIRC3.
The mark [14] stands for this setting: peptide PUMA 1 uM, feature loss_1q21.3.
The mark [15] stands for this setting: peptide PUMA 1 uM, feature loss_7p22.2.
The mark [16] stands for this setting: peptide PUMA 1 uM, feature loss_9p21.3.
Where [17] appears, read: peptide PUMA 1 uM, feature loss_17q11.2.
[18] abbreviates: peptide BAD 0.3 uM, feature M-CLL.
The mark [19] stands for this setting: peptide BAD 0.3 uM, feature U-CLL.
[20] abbreviates: peptide MS1 2.5 uM, feature EC-m4.
Where [21] appears, read: peptide PUMA 1 uM, feature FBXW7.
[22] abbreviates: peptide BIM 0.01 uM, feature loss_15q15.1b.
Where [23] appears, read: peptide BIM 0.01 uM, feature loss_20p11.22.
Setting [24] is: peptide PUMA 1 uM, feature loss_3p21.31.
The mark [25] stands for this setting: peptide MS1 2.5 uM, feature m-CLL.

With `NC1(c2ccc(-c3nc4ccn5c(=O)[nH]nc5c4cc3-c3ccccc3)cc2)CCC1` [MK-2206], the direction entry is, setting by setting: (Feature priortrt_Post) “Resistant”; (peptide BAD 0.3 uM, feature EC-i) “Resistant”; under setting [1], “Resistant”; under setting [2], “Resistant”; under setting [3], “Resistant”; under setting [4], “Resistant”. The direction result reads like this: under setting [5], “Sensitive”; (peptide BIM 0.01 uM, feature ITIH2) “Sensitive”; under setting [6], “Sensitive”; under setting [7], “Sensitive”; under setting [8], “Resistant”; under setting [9], “Resistant”. For the same compound, the direction result by setting is: under setting [10], “Resistant”; under setting [11], “Resistant”; under setting [12], “Resistant”.
Regarding `CCC[C@H](N[C@H]1CCc2cc(F)cc(F)c2C1)C(=O)Nc1cn(C(C)(C)CNCC(C)(C)C)cn1` [Nirogacestat], the direction result by setting is: (peptide BAD 0.3 uM, feature loss_1p36.11) “Resistant”; (peptide BAD 0.3 uM, feature loss_3p13) “Resistant”; (peptide BAD 0.3 uM, feature loss_18q21.2) “Resistant”; (peptide BIM 0.01 uM, feature EC-m2) “Sensitive”; (peptide BIM 0.01 uM, feature tri_12) “Sensitive”; under setting [13], “Sensitive”. Further, the direction result is, setting by setting: under setting [14], “Sensitive”; under setting [15], “Sensitive”; under setting [16], “Sensitive”; under setting [17], “Sensitive”.
In the case of `COc1ccc(C2=N[C@@H](c3ccc(Cl)cc3)[C@@H](c3ccc(Cl)cc3)N2C(=O)N2CCNC(=O)C2)c(OC(C)C)c1` [Nutlin-3], where the note is “EC-m1”, the “drug-induced apoptotic priming by expression cluster” value is recorded as “most sensitive”. Moreover, the direction result is “Resistant” (Feature FBXW7); “Resistant” (Feature priortrt_Post); “Sensitive” under setting [18]; “Resistant” under setting [19]; “Resistant” under setting [4]; “Sensitive” under setting [20]. Also, the direction entry is “Sensitive” (peptide PUMA 1 uM, feature EC-m4); “Resistant” under setting [21]; “Resistant” (peptide PUMA 1 uM, feature loss_17p13.1); “Resistant” under setting [12]. In addition, the drug-induced apoptotic priming entry (across CLL subtypes, 65 primary CLL samples, 20 hours drug) is reported as “high priming”. Besides, the dprim_pearson_corr is on record as 0.4093 under setting [18], −0.4093 under setting [19], −0.4166 under setting [4] and 0.3373 under setting [20].
Regarding `CC(C)c1cc(C(=O)N2Cc3ccc(CN4CCN(C)CC4)cc3C2)c(O)cc1O` [Onalespib], the direction result (peptide BAD 0.3 uM, feature loss_1q42.13) was “Sensitive”; the direction result (peptide BAD 0.3 uM, feature loss_13q14.13) was “Sensitive”; the direction entry (peptide BAD 0.3 uM, feature loss_16p11.2) is on record as “Sensitive”; the direction result under setting [22] is “Resistant”; the direction entry under setting [23] is recorded as “Resistant”; the direction entry (peptide MS1 2.5 uM, feature loss_19p13.11) was “Sensitive”. Where the note is “peptide PUMA 1 uM, feature loss_6q21”, the direction entry is “Resistant”.
`C=CC(=O)Nc1cc(Nc2nccc(-c3cn(C)c4ccccc34)n2)c(OC)cc1N(C)CCN(C)C` [Osimertinib]: the direction result under setting [1] is “Resistant”; the direction entry (peptide BAD 0.3 uM, feature MYD88) is listed as “Resistant”; the direction entry (peptide BAD 0.3 uM, feature NOTCH1) is “Resistant”; the direction result under setting [2] is given as “Resistant”; the direction result under setting [3] was “Resistant”; the direction entry under setting [5] is on record as “Sensitive”. Also, the direction entry runs as follows: (peptide BIM 0.01 uM, feature EC-u2) “Sensitive”; (peptide BIM 0.01 uM, feature IGLV321_R110) “Resistant”; (peptide BIM 0.01 uM, feature NOTCH1) “Resistant”; (peptide BIM 0.01 uM, feature RPS15) “Resistant”; (peptide BIM 0.01 uM, feature loss_6q) “Resistant”; under setting [6], “Sensitive”. In addition, the direction entry under setting [7] was “Sensitive”; the direction entry under setting [8] was “Resistant”; the direction result under setting [9] is “Resistant”; the direction result (peptide MS1 2.5 uM, feature NOTCH1) was “Resistant”; the direction entry under setting [10] was “Resistant”; the direction result under setting [11] is recorded as “Resistant”. Further, the direction entry by setting is: under setting [13], “Sensitive”; (peptide PUMA 1 uM, feature MYD88) “Resistant”; under setting [24], “Resistant”; under setting [16], “Sensitive”; under setting [17], “Sensitive”.
Take `O=C(CCCCCCNC(=O)c1cnc(N(c2ccccc2)c2ccccc2)nc1)NO` [Ricolinostat]: the direction entry runs as follows: (peptide BAD 0.3 uM, feature CARD11) “Sensitive”; (peptide BIM 0.01 uM, feature i-CLL) “Resistant”; under setting [22], “Resistant”; under setting [23], “Resistant”; (peptide MS1 2.5 uM, feature CNOT3) “Sensitive”; (peptide MS1 2.5 uM, feature loss_10q24.32) “Resistant”. The direction entry by setting is: under setting [25], “Sensitive”; (peptide PUMA 1 uM, feature CARD11) “Sensitive”; (peptide PUMA 1 uM, feature gain_16p11.2) “Resistant”; (peptide PUMA 1 uM, feature i-CLL) “Resistant”; under setting [14], “Resistant”; (peptide PUMA 1 uM, feature loss_2q31.1) “Resistant”. Besides, the direction result under setting [24] is given as “Resistant”; the direction entry (peptide PUMA 1 uM, feature loss_5p15.33) is reported as “Resistant”; the direction entry under setting [15] is reported as “Resistant”; the direction entry (peptide PUMA 1 uM, feature loss_10p12.2) was “Resistant”; the direction entry (peptide PUMA 1 uM, feature loss_12p13.31a) is recorded as “Resistant”; the direction entry (peptide PUMA 1 uM, feature loss_14q32.12) is reported as “Resistant”. Moreover, the direction result reads like this: (peptide PUMA 1 uM, feature loss_15q15.1b) “Resistant”; (peptide PUMA 1 uM, feature loss_16q22.1) “Resistant”; (peptide PUMA 1 uM, feature loss_17p13.3) “Resistant”; (peptide PUMA 1 uM, feature loss_20p11.22) “Resistant”; (peptide PUMA 1 uM, feature m-CLL) “Sensitive”.
`O=C(/C=C\n1cnc(-c2cc(C(F)(F)F)cc(C(F)(F)F)c2)n1)NNc1cnccn1` [Selinexor]: the direction result is, setting by setting: (Feature MYD88) “Sensitive”; (peptide BAD 0.3 uM, feature ITIH2) “Sensitive”; (peptide BIM 0.01 uM, feature MYD88) “Sensitive”; (peptide PUMA 1 uM, feature loss_7q36.1) “Sensitive”; (peptide PUMA 1 uM, feature loss_8p) “Sensitive”.
Regarding `CNC(=O)c1cc(Oc2ccc(NC(=O)Nc3ccc(Cl)c(C(F)(F)F)c3)cc2)ccn1` [Sorafenib], the direction result reads like this: (peptide BAD 0.3 uM, feature GNB1) “Sensitive”; (peptide BAD 0.3 uM, feature RFX7) “Sensitive”; (peptide BAD 0.3 uM, feature ZMYM3) “Sensitive”; (peptide BAD 0.3 uM, feature i-CLL) “Resistant”; (peptide BIM 0.01 uM, feature FBXW7) “Resistant”; (peptide BIM 0.01 uM, feature GNB1) “Sensitive”. The direction entry is given as “Resistant” (peptide BIM 0.01 uM, feature RFX7); “Resistant” (peptide BIM 0.01 uM, feature ZMYM3); “Resistant” (peptide BIM 0.01 uM, feature gain_19p13.3); “Resistant” (peptide BIM 0.01 uM, feature loss_2q31.1); “Resistant” (peptide BIM 0.01 uM, feature loss_10p12.2); “Resistant” (peptide MS1 2.5 uM, feature RFX7). In addition, the direction result is, setting by setting: (peptide MS1 2.5 uM, feature ZMYM3) “Resistant”; (peptide MS1 2.5 uM, feature gain_19p13.3) “Resistant”; (peptide MS1 2.5 uM, feature loss_2q31.1) “Resistant”; (peptide MS1 2.5 uM, feature loss_10p12.2) “Resistant”; (peptide MS1 2.5 uM, feature loss_10q24.2) “Resistant”; (peptide MS1 2.5 uM, feature loss_11q22.3) “Resistant”. Moreover, the direction result runs as follows: under setting [25], “Sensitive”; (peptide MS1 2.5 uM, feature priortrt_Post) “Resistant”; under setting [21], “Resistant”; (peptide PUMA 1 uM, feature RFX7) “Resistant”; (peptide PUMA 1 uM, feature ZMYM3) “Resistant”.
